# Reference: US11772141B1, “Method for targeted regulation of soil microbes to synchronize heavy metal/metalloid transformation and greenhouse gas emission reduction and use” (priority 2022, dated 2023)
# Key:
# [1] = test system: soil microbes; conditions: Met 1 mM, Met:Fat 1:10 in combinations
# Description: 5 grams of arsenic-contaminated rice field soils taken from Hunan Province, China was placed into a 20 mL glass sample tube, 2.5 mL of sterilized culture medium was added, and then the glass sample tube was placed in an anaerobic glove box for cultivation. The culture medium was composed of 10 mM NH4Cl, 5 mM NaHCO3, 1 mM KH2PO4, 0.5 mM MgCl2, 0.5 CaCl2, 1 mL of L^−1 vitamin and 1 mL/L of trace elements. […] After addition of the Met and the Fat and after further reaction for 60 days, headspace gas was collected and measured by GC-TCD, a soil suspension was extracted, and ammonium dihydrogen phosphate was added to desorb adsorbed methyl arsenic. After the resulted soil suspension passed through a 0.22-micron membrane, methyl arsenic, including monomethylarsenic, dimethylarsenic and trimethylarsenic oxides, in a soil solution was measured by HPLC-ICPMS. […]
# After further anaerobic culture for 60 days, headspace gas was collected and measured by GC-TCD, a soil suspension was extracted, and ammonium dihydrogen phosphate was added to desorb adsorbed methyl arsenic. After the resulted soil suspension passed through a 0.22-micron membrane, the methyl arsenic in the soil solution was measured by HPLC-ICPMS.
# [2] = test system: arsM gene; conditions: soil control 950
# Description: Construction of the plasmid standard was performed by ligating a vector pUC19 with a PCR product of arsM or mcrA gene. After a single clone was picked, plasmid DNA was extracted, the DNA concentration was measured with Qubit 3.0 Fluorometer, the gene copy number was calculated, and then the EASY dilution solution was diluted to 10^2-10^8(copy number per μL) to obtain a Standard curve. […] Information and reaction procedures of the primers used for amplification of the arsM and mcrA genes were as follows:
# arsM amplification reaction program: at 95° C. for 10 min; at 95° C. for 30 s, at 60° C. for 45 s, and at 72° C. for 1 min, 40 cycles; and prolonging at 72° C. for 10 min;
# [3] = test system: mcrA gene; conditions: soil control 1.5*10^6
# Description: Construction of the plasmid standard was performed by ligating a vector pUC19 with a PCR product of arsM or mcrA gene. After a single clone was picked, plasmid DNA was extracted, the DNA concentration was measured with Qubit 3.0 Fluorometer, the gene copy number was calculated, and then the EASY dilution solution was diluted to 10^2-10^8(copy number per μL) to obtain a Standard curve.
# mcrA amplification reaction program: at 95° C. for 10 min; at 95° C. for 15 s, at 58° C. for 30 s, and at 72° C. for 30 s, 40 cycles; and prolonging at 72° C. for 2 min.
smiles,measurement,setting,value
CSCC[C@H](N)C(=O)O [methionine],production of methyl arsenic,[1]; 60 days anaerobic reaction,0.1 µM
same,methane emission,"[1]; 60 days, control group 5.5 mM",18.7 mM
same,transcript copy number of arsM,[2],1200 copies per g of soils
same,transcript copy number of mcrA,[3],2.0*10^7 copies per g of soils
